Here are results for 13 molecules from ChEMBL document CHEMBL1201862, “PubChem BioAssay data set” (2004).

Common to all, as to assay: NCI anticancer screen, dose series, 48 h
Test [1] deals with A549.
Test [2] concerns ACHN.
For test [3], the system named is HCT-116.
In test [4] the test system is HOP-62.
Test [5] relates to M19-MEL.
The test system of test [6] is Malme-3M.
The test system of test [7] is NCI-H23.
Test [8] deals with NCI-H522.
Test [9] concerns OVCAR-5.
Test [10] concerns SF-539.
Test [11] deals with SNB-75.
Test [12] concerns SW-620.
Test [13] relates to UACC-257.
In test [14] the test system is UACC-62.
For test [15], the system named is UO-31.
The subject of test [16] is CAKI-1.

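48-hour exposure; five concentrations; linearly interpolated endpoints. The concentration for 50% growth inhibition is given as GI50.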 Active and inactive are the calls of the source. No stated cut-off is given here; in the data, active = GI50 up to about 1.1 µM and inactive = higher.

Consider `CCOC(=O)C1Cc2ccc3c4c(ccc(c24)C1)CC(C(=O)OCC)C3`, for which the GI50 in test [1], in test [2], in test [3], in [4], in test [5] and in test [6] was > 100 µM (inactive) each time. Also, the GI50 in test [7], in test [8], in [9], in test [10], in [11] and in [12] was > 100 µM (inactive) in each case. Besides, the GI50 in test [13], in test [14] and in test [15] was > 100 µM (inactive) each time.
Turning to `CCOC(=O)c1nc(-c2ccccc2)oc1OCC`, the GI50 in test [1], in [3], in [4], in test [5], in test [7] and in test [8] was > 100 µM (inactive) in each case. Further, the GI50 in test [10], in test [11], in [12] and in test [14] was > 100 µM (inactive) in each case.
For the molecule `N/N=C(/C(=O)Nc1cccc(Cl)c1)C(C(=O)c1ccc(O)cc1O)C1OC(=O)c2ccccc21` (stereo not given), the GI50 in test [1], in [2], in test [3], in test [4], in test [5] and in test [6] was > 100 µM (inactive) throughout. Also, the GI50 in test [7] is 65.5 µM (inactive); in test [8] it was 71 µM (inactive); in [9], > 100 µM (inactive); in test [10] it was > 100 µM (inactive); in [12] it was > 100 µM (inactive); in [13] it was > 100 µM (inactive). Further, the GI50 in test [14] was 52.8 µM (inactive); in test [15], > 100 µM (inactive).
For `O=C(/C=C\c1cccc2ccccc12)c1ccc(Br)cc1`, the GI50 was > 100 µM (inactive) in [1]; 17.4 µM (inactive) in test [2]; 33 µM (inactive) in [16]; 16.7 µM (inactive) in test [3]; > 100 µM (inactive) in test [4]; 19 µM (inactive) in test [5]. Besides, the GI50 is 31.3 µM (inactive) in test [6]; 34 µM (inactive) in test [7]; 21 µM (inactive) in test [8]; 18 µM (inactive) in test [9]; 22.3 µM (inactive) in test [10]; 21.7 µM (inactive) in [11]. Further, the GI50 in test [12] is 12.1 µM (inactive); in [13], 22.3 µM (inactive); in test [14], 15.2 µM (inactive); in test [15] it was 19.1 µM (inactive).
As to `O=C(Nc1ccc(Sc2ccc(/N=N/c3c(O)c(S(=O)(=O)O)cc4cc(S(=O)(=O)O)ccc34)cc2)cc1)c1ccc(/N=N/c2c(O)ccc3c(S(=O)(=O)O)cc(S(=O)(=O)O)cc23)cc1`, the GI50 in test [1] is 28.4 µM (inactive); in test [2], 29.4 µM (inactive); in test [16], 43.8 µM (inactive); in [3] it was 49.3 µM (inactive); in test [4], 87.3 µM (inactive); in test [5], 16.6 µM (inactive). Further, the GI50 is 24.9 µM (inactive) in test [6]; 19 µM (inactive) in [7]; 13.4 µM (inactive) in [8]; 33.4 µM (inactive) in test [9]; 46.9 µM (inactive) in test [10]; > 100 µM (inactive) in test [11]. For the same molecule, the GI50 was 38.5 µM (inactive) in test [12], 11.2 µM (inactive) in [13], 16.9 µM (inactive) in test [14] and 41.2 µM (inactive) in test [15].
In the case of `CCCCOP1(=O)CC(C)=C(Cl)C(C)(OC)C1` (stereo not given), the GI50 in [1] is > 100 µM (inactive); in [2], > 100 µM (inactive); in test [3] it was 61.4 µM (inactive); in test [4], > 100 µM (inactive); in test [5], > 100 µM (inactive); in [6], > 100 µM (inactive). The GI50 in test [7] was > 100 µM (inactive); in test [8], 37.9 µM (inactive); in [10] it was > 100 µM (inactive); in test [11], > 100 µM (inactive); in test [12] it was 46.7 µM (inactive); in test [13], > 100 µM (inactive). In addition, the GI50 in [14] and in test [15] was > 100 µM (inactive) throughout.
Turning to `O=C1CCN2CCC(=O)c3c2c(cc2ccccc32)N1`, the GI50 in test [1], in test [2], in test [16], in [3], in [4] and in [5] was > 100 µM (inactive) throughout. Moreover, the GI50 in test [6], in [8], in test [9], in test [10], in test [11] and in test [12] was > 100 µM (inactive) in each case. In addition, the GI50 in [13] was > 100 µM (inactive); in test [14] it was > 100 µM (inactive); in [15], 75.5 µM (inactive).
Regarding `COC(=O)CCCCCOS(=O)(=O)c1ccc(C)cc1`, the GI50 in test [1], in test [2], in test [3], in test [5], in test [6] and in test [7] was > 100 µM (inactive) each time. Also, the GI50 in [8], in test [9], in test [10], in test [11], in [12] and in test [13] was > 100 µM (inactive) throughout. Further, the GI50 in test [14] and in [15] was > 100 µM (inactive) in each case.
Regarding `COC(=O)C1CCC(C)CC1=O` (stereo not given), the GI50 in [1] is > 100 µM (inactive); in [2] it was > 100 µM (inactive); in [16], > 100 µM (inactive); in [3], > 100 µM (inactive); in [4] it was 99.8 µM (inactive); in test [5], > 100 µM (inactive). Further, the GI50 in test [6], in test [7], in test [8], in test [9], in [10] and in test [11] was > 100 µM (inactive) in each case. Further, the GI50 in [12], in test [13], in [14] and in test [15] was > 100 µM (inactive) in each case.
Consider `Cc1cc2occ(C)c(=O)c2c2c1OC(C)(C)S2`, for which the GI50 in test [1], in test [2], in [3], in [4], in test [5] and in test [6] was > 100 µM (inactive) throughout. The GI50 in test [7] is > 100 µM (inactive); in test [8] it was 47.6 µM (inactive); in test [9] it was > 100 µM (inactive); in test [10] it was > 100 µM (inactive); in [11], 88.5 µM (inactive); in test [12], > 100 µM (inactive). In addition, the GI50 in [13], in [14] and in [15] was > 100 µM (inactive) throughout.
Take `COc1cc2c3c(c1OC)-c1ccccc1C(C(OC(C)=O)c1ccccc1)C3N(C)CC2` (stereo not given): the GI50 was 32.8 µM (inactive) in test [1]; 14.8 µM (inactive) in test [2]; 63 µM (inactive) in [16]; 34.5 µM (inactive) in [3]; 28.8 µM (inactive) in test [5]; 33.2 µM (inactive) in test [6]. For the same molecule, the GI50 is 38.7 µM (inactive) in test [7]; 49.2 µM (inactive) in [8]; > 100 µM (inactive) in [9]; > 100 µM (inactive) in test [10]; 31.9 µM (inactive) in test [11]; 65.3 µM (inactive) in test [12]. For the same molecule, the GI50 was 58.5 µM (inactive) in [13], 34 µM (inactive) in test [14] and 57.1 µM (inactive) in [15].
With `COc1cc2c(c(OC)c1OC)-c1ccc(SC)c(=O)cc1[C@@H](NCc1cccc(C#N)c1)CC2`, the GI50 in [1] is 0.0345 µM (active); in [2] it was 0.047 µM (active); in test [16] it was 0.0075 µM (active); in test [3], 0.0173 µM (active); in [4], 0.0334 µM (active); in test [5] it was 0.0193 µM (active). The GI50 was 0.0232 µM (active) in [6]; 0.0179 µM (active) in test [7]; 0.0142 µM (active) in [8]; 0.037 µM (active) in test [9]; 0.014 µM (active) in [10]; 0.00516 µM (active) in [11]. Moreover, the GI50 was 0.0132 µM (active) in test [12], 0.0448 µM (active) in test [13], 0.00668 µM (active) in test [14] and 0.308 µM (active) in test [15].
For `O=C(NC12CC3CC(CC(C3)C1)C2)C(=O)c1c[nH]c2ccccc12`, the GI50 is 16.3 µM (inactive) in test [1]; 15.5 µM (inactive) in test [2]; 14.7 µM (inactive) in test [3]; 19.1 µM (inactive) in test [4]; 18.7 µM (inactive) in test [5]; 15 µM (inactive) in [6]. The GI50 in test [7] was 14.7 µM (inactive); in [8], 16.3 µM (inactive); in test [9] it was 17.9 µM (inactive); in test [10], 13.6 µM (inactive); in [11], > 10 µM (inactive); in [13] it was 12.9 µM (inactive). For the same molecule, the GI50 in test [14] was 13.4 µM (inactive); in test [15], 20 µM (inactive).
